Laboratory results: ChEMBL document CHEMBL1614632, “Trend analysis of a database of intravenous pharmacokinetic parameters in humans for 670 drug compounds” (Drug Metab Dispos, 2008)

What was measured:
clinical [1] = settings: human, in vivo, iv
clinical [2] = settings: human, in vivo, iv, CL
clinical [3] = settings: human, in vivo, iv, Vdss
clinical [4] = settings: human, in vivo, iv, t1/2

With `O=C(O)[C@H]1/C(=C/CO)O[C@@H]2CC(=O)N21` [CLAVULANIC ACID] as the compound, how does the MRT (clinical [1]) read?
The MRT was 1 h.

And the clearance (clinical [2])?
Its clearance is 0.186 L/h/kg.

What about the Vd (clinical [3]) of the same compound?
Its Vd is 0.22 L/kg.

What about the half-life (clinical [4]) of the same compound?
Its half-life is 0.9 h.

Which results are given for `CCCCc1ncc(/C=C(\Cc2cccs2)C(=O)O)n1Cc1ccc(C(=O)O)cc1` [EPROSARTAN]?
MRT (clinical [1]): 1.5 h; clearance (clinical [2]): 0.114 L/h/kg; Vd (clinical [3]): 0.17 L/kg; half-life (clinical [4]): 2.1 h

Which MRT (clinical [1]) does the source give for `COc1cc(CC(=O)NCC(=O)N(CCC(=O)O)Cc2ccc(OC)c(OC)c2)ccc1NC(=O)Nc1ccccc1C` here?
Its MRT is 0.38 h.

And the clearance (clinical [2])?
The clearance was 0.66 L/h/kg.

And the Vd (clinical [3])?
The Vd was 0.25 L/kg.

And the half-life (clinical [4])?
Its half-life is 1.6 h.

With `Cc1cccc(C)c1NC(=O)C(C)N` (stereo unspecified) [TOCAINIDE] as the compound, how does the MRT (clinical [1]) read?
Its MRT is 14 h.

And the clearance (clinical [2])?
The clearance was 0.132 L/h/kg.

What about the Vd (clinical [3]) of the same compound?
The Vd was 1.8 L/kg.

And the half-life (clinical [4])?
The half-life was 12 h.

For `CN(C)C(=N)N=C(N)N` [METFORMIN], which MRT (clinical [1]) is on record?
Its MRT is 1.4 h.

And the clearance (clinical [2])?
Its clearance is 0.444 L/h/kg.

And the Vd (clinical [3])?
The Vd was 0.64 L/kg.

What about the half-life (clinical [4]) of the same compound?
The half-life was 1.7 h.

With `COc1cc2c(cc1O)CCN[C@]21CS[C@@H]2c3c(OC(C)=O)c(C)c4c(c3[C@H](COC1=O)N1[C@@H]2[C@H]2c3c(cc(C)c(OC)c3O)C[C@@H]([C@@H]1O)N2C)OCO4` [TRABECTEDIN] as the compound, how does the MRT (clinical [1]) read?
The MRT was 35 h.

And the clearance (clinical [2])?
Its clearance is 0.72 L/h/kg.

What about the Vd (clinical [3]) of the same compound?
The Vd was 25 L/kg.

What about the half-life (clinical [4]) of the same compound?
Its half-life is 44 h.

For `Cc1cccc(Nc2ccncc2S(=O)(=O)NC(=O)NC(C)C)c1` [TORSEMIDE], which MRT (clinical [1]) is on record?
Its MRT is 6.6 h.

And the clearance (clinical [2])?
The clearance was 0.0318 L/h/kg.

And the Vd (clinical [3])?
Its Vd is 0.21 L/kg.

And the half-life (clinical [4])?
Its half-life is 5.1 h.

Which MRT (clinical [1]) does the source give for `NC(=O)CC[C@@H]1NC(=O)[C@H](Cc2ccccc2)NC(=O)[C@H](Cc2ccc(O)cc2)NC(=O)CCSSC[C@@H](C(=O)N2CCC[C@H]2C(=O)N[C@H](CCCN=C(N)N)C(=O)NCC(N)=O)NC(=O)[C@H](CC(N)=O)NC1=O` [DESMOPRESSIN] here?
Its MRT is 3.6 h.

What about the clearance (clinical [2]) of the same compound?
Its clearance is 0.084 L/h/kg.

And the Vd (clinical [3])?
The Vd was 0.3 L/kg.

And the half-life (clinical [4])?
Its half-life is 3 h.

For `OC(Cn1cncn1)(Cn1cncn1)c1ccc(F)cc1F` [FLUCONAZOLE], which MRT (clinical [1]) is on record?
The MRT was 40 h.

What about the clearance (clinical [2]) of the same compound?
The clearance was 0.0186 L/h/kg.

What about the Vd (clinical [3]) of the same compound?
The Vd was 0.75 L/kg.

And the half-life (clinical [4])?
Its half-life is 30 h.

What does the source list for `N=C(N)NC(=O)Cc1c(Cl)cccc1Cl` [GUANFACINE]?
MRT (clinical [1]): 22 h; clearance (clinical [2]): 0.27 L/h/kg; Vd (clinical [3]): 5.6 L/kg; half-life (clinical [4]): 15 h

What does the source list for `CN[C@@H]1[C@H](O)[C@H](NC)[C@H]2O[C@@]3(O)C(=O)C[C@@H](C)O[C@H]3O[C@@H]2[C@H]1O` [SPECTINOMYCIN]?
MRT (clinical [1]): 2.2 h; clearance (clinical [2]): 0.0594 L/h/kg; Vd (clinical [3]): 0.13 L/kg; half-life (clinical [4]): 1.8 h

For `CCN1C[C@H]2CN(C)C[C@H](C1)C2OC(=O)c1ccc(Cl)cc1` (stereo partly specified), which MRT (clinical [1]) is on record?
The MRT was 8.8 h.

And the clearance (clinical [2])?
Its clearance is 1.02 L/h/kg.

And the Vd (clinical [3])?
The Vd was 9 L/kg.

What about the half-life (clinical [4]) of the same compound?
The half-life was 8.6 h.

Which MRT (clinical [1]) does the source give for `C[C@@H]1O[C@@H]1P(=O)(O)O` [FOSFOMYCIN] here?
The MRT was 2.7 h.

What about the clearance (clinical [2]) of the same compound?
The clearance was 0.12 L/h/kg.

And the Vd (clinical [3])?
Its Vd is 0.32 L/kg.

And the half-life (clinical [4])?
Its half-life is 1.9 h.

Which MRT (clinical [1]) does the source give for `O=C1CN=C(c2ccccc2Cl)c2cc([N+](=O)[O-])ccc2N1` [CLONAZEPAM] here?
The MRT was 55 h.

And the clearance (clinical [2])?
Its clearance is 0.0528 L/h/kg.

What about the Vd (clinical [3]) of the same compound?
The Vd was 2.9 L/kg.

What about the half-life (clinical [4]) of the same compound?
The half-life was 38 h.

With `CCOC(=O)[C@]1(c2ccccc2)CCC=C[C@H]1NC` [NORTILIDINE] as the compound, how does the MRT (clinical [1]) read?
Its MRT is 4.2 h.

And the clearance (clinical [2])?
Its clearance is 0.594 L/h/kg.

What about the Vd (clinical [3]) of the same compound?
The Vd was 2.5 L/kg.

What about the half-life (clinical [4]) of the same compound?
The half-life was 4.4 h.

What does the source list for `O=P1(NCCCl)OCCCN1CCCl` (stereo unspecified) [IFOSFAMIDE]?
MRT (clinical [1]): 9.4 h; clearance (clinical [2]): 0.066 L/h/kg; Vd (clinical [3]): 0.62 L/kg; half-life (clinical [4]): 6.6 h

Which MRT (clinical [1]) does the source give for `NCCCNc1ccc2c(CNCCO)nn3c4c(O)ccc(O)c4c(=O)c1c23` here?
The MRT was 11 h.

What about the clearance (clinical [2]) of the same compound?
Its clearance is 1.08 L/h/kg.

What about the Vd (clinical [3]) of the same compound?
The Vd was 12 L/kg.

What about the half-life (clinical [4]) of the same compound?
The half-life was 32 h.

What does the source list for `COc1ccccc1OCCNCC(O)COc1cccc2[nH]c3ccccc3c12` (stereo unspecified) [CARVEDILOL]?
MRT (clinical [1]): 2.8 h; clearance (clinical [2]): 0.468 L/h/kg; Vd (clinical [3]): 1.3 L/kg; half-life (clinical [4]): 2.4 h

Which MRT (clinical [1]) does the source give for `CC(C)(C)[C@]1(O)CC2OC(=O)CC23C(=O)OC2OC(=O)[C@H](O)C231` (stereo partly specified) [BILOBALIDE] here?
The MRT was 4 h.

And the clearance (clinical [2])?
The clearance was 0.6 L/h/kg.

And the Vd (clinical [3])?
Its Vd is 2.5 L/kg.

And the half-life (clinical [4])?
The half-life was 3.2 h.

Which MRT (clinical [1]) does the source give for `CCS(=O)(=O)CCn1c([N+](=O)[O-])cnc1C` [TINIDAZOLE] here?
The MRT was 16 h.

And the clearance (clinical [2])?
Its clearance is 0.036 L/h/kg.

What about the Vd (clinical [3]) of the same compound?
Its Vd is 0.59 L/kg.

And the half-life (clinical [4])?
The half-life was 13 h.

Which MRT (clinical [1]) does the source give for `Cc1cc(=O)n(-c2ccccc2)n1C` [ANTIPYRINE] here?
Its MRT is 20 h.

And the clearance (clinical [2])?
Its clearance is 0.0384 L/h/kg.

What about the Vd (clinical [3]) of the same compound?
The Vd was 0.77 L/kg.

And the half-life (clinical [4])?
The half-life was 12 h.

Which results are given for `CCCCCN(CCCOC)C(=O)[C@@H](CCC(=O)O)NC(=O)c1ccc(Cl)c(Cl)c1` [DEXLOXIGLUMIDE]?
MRT (clinical [1]): 0.79 h; clearance (clinical [2]): 0.222 L/h/kg; Vd (clinical [3]): 0.18 L/kg; half-life (clinical [4]): 1.2 h

With `NS(=O)(=O)c1cc2c(cc1C(F)(F)F)NCNS2(=O)=O` [HYDROFLUMETHIAZIDE] as the compound, how does the MRT (clinical [1]) read?
The MRT was 3.8 h.

What about the clearance (clinical [2]) of the same compound?
The clearance was 0.582 L/h/kg.

What about the Vd (clinical [3]) of the same compound?
The Vd was 2.2 L/kg.

And the half-life (clinical [4])?
The half-life was 5.2 h.

Which MRT (clinical [1]) does the source give for `O=C(O)Cn1c(=O)c(=O)[nH]c2cc([N+](=O)[O-])c(-n3ccnc3)cc21` [ZONAMPANEL] here?
The MRT was 0.6 h.

What about the clearance (clinical [2]) of the same compound?
Its clearance is 0.318 L/h/kg.

And the Vd (clinical [3])?
Its Vd is 0.19 L/kg.

What about the half-life (clinical [4]) of the same compound?
The half-life was 0.78 h.
